Measurements from patent publication US20200341000A1, “METHOD OF SCREENING COMPOUNDS FOR TREATING CNS DISORDERS” (SAGE THERAPEUTICS, INC., priority 2017, published 2020).
“Also recorded” adds a separate entry of the source.

Columns and labels:
[1] = system: plasma membrane GABAARs containing the α4 and β3 subunits; assay: Biotinylation, surface/total GABAAR subunits in hippocampal slices of WT mice; assay type: cell-based
Protocol: (§1) Hippocampi were dissected out of acute slices from 8 to 12 week old C57/B16 mice and lysed with phosphate buffer including: 20 mM Tris-HCl, 150 mM NaCl, 5 mM EDTA, 10 mM NaF, 2 mM Na3VO4, 10 mM pyrophosphate, 0.1% SDS and 1% Triton after drug treatment. The β3 subunit was isolated using immunoprecipitation with β3 antibodies, after correction for protein content and the specific activity of labeling. Results were attained by SDS/PAGE followed by autoradiography (Abramian et al., 2010). For biotinylation experiments hippocampi were dissected out of acute slices from 8 to 12 week old C57/B16 mice and incubated in artificial cerebrospinal fluid (ACSF) described above at 30° C. for 1 h for recovery before experimentation. Slices were then placed on ice and incubated for 30 min with 1 mg/mL NHS-SS-biotin (Pierce). Excess biotin was removed by a 50 mM glycine quenching buffer, followed by washing of slices three times in ice-cold ACSF. The tissue was snap frozen on dry ice for 5 min, thawed at 4° C. and lysed. The lysates were solubilized with 2% Triton at 4° C. on a rotating wheel for 1 h. The insoluble material was removed by centrifugation, and 350-500 μg of protein lysate were incubated with NeutrAvidin beads (Pierce) for 18-24 h at 4° C. Bound material was eluted with sample buffer and subjected to SDS/PAGE and then immunoblotted with the indicated antibodies. Blots were then quantified using the CCD-based ChemiDoc XRS ? system. Antibodies against the β3 subunit and the phospho-β3 antibody were generated and verified by the laboratory of S.J.M. (Vien et al., 2015).
Hippocampal slices were treated as outlined above. Treated slices were then subject to biotinylation and lysis, and surface fractions were isolated on immobilized avidin. Surface (S) and total (T) fractions were immunoblotted with α4 and β3 subunit antibodies.
Consistent with the examples above, hippocampal slices from WT and S408/9A mice were treated for 20 min with 100 nM SGE-516 or vehicle (Con) and subjected to biotinylation followed by immunoblotting with β3 and α4 subunit antibodies. The ratio of surface/total (S/T) immunoreactivity was then normalized to levels seen in control (100%).

[2] = system: GABAA receptor β3 subunit S408/9 phosphorylation; assay: Immunoblot of β3 S408/9 phosphorylation in hippocampal slices; assay type: cell-based, mice; conditions: 100 nM, 20 min, acute hippocampal slices
Protocol: as §1
To produce antibodies specific for phosphorylated S443, rabbits were injected with a synthetic peptide corresponding to residues […] of the murine α4 subunit in which the serine residue corresponding to S443 was chemically phosphorylated; […]. Hippocampal slices were treated with vehicle (Con), or SGE-516 for 20 min. Slices were immunoblotted with pS408/9, β3, or actin antibodies. The ratio of pS408/9/β3 immunoreactivity was then normalized to control slices (100%=the line).
Hippocampal slices were treated with 100 nM ALLO or P4 (progesterone), and S408/9 phosphorylation was then determined as detailed above, n=4 slices (FIG. 18D). Hippocampal slices were treated with 100 nM ORG (FIG. 18E). S408/9 phosphorylation was examined using immunoblotting.

[3] = system: tonic current in dentate gyms granule cells (DGGCs); assay: Sustained (metabotropic) enhancement of tonic current in DGGCs after 15 min exposure and washout; assay type: cell-based, mice; conditions: for tonic current after exposure and washout: 1 μM, vehicle 43.9±5.7 pA; for change of tonic current after exposure to different concentrations: maximal effects at 1 μM; for tonic current versus vehicle with PKC inhibitor GFX: GFX 50 μM 15 min, then co-exposure with compound 15 min, washout
Protocol: Brain slices were prepared from 3- to 5-week-old male C57 mice. Mice were anesthetized with isoflurane, decapitated, and brains were rapidly removed and submerged in ice-cold cutting solution containing (mM): 126 NaCl, 2.5 KCl, 0.5 CaCl2, 2 MgCl2, 26 NaHCO3, 1.25 NaH2PO4, 10 glucose, 1.5 sodium pyruvate, and 3 kynurenic acid. Coronal 310 μm thick slices were cut with the vibratome VT1000S (Leica Microsystems, St Louis, Mo., USA). The slices were then transferred into incubation chamber filled with prewarmed (31-32° C.) oxygenated artificial cerebro-spinal fluid (ACSF) of the following composition (in mM): 126 NaCl, 2.5 KCl, 2 CaCl2, 2 MgCl2, 26 NaHCO3, 1.25 NaH2PO4, 10 glucose, 1.5 sodium pyruvate, 1 glutamine, 3 kynurenic acid and 0.005 GABA bubbled with 95% O2-5% CO2. Slices were allowed to recover at 32° C. for at least 1 hr before recording. Exogenous GABA was added in an attempt to standardize ambient GABA in the slice and provide an agonist source for newly inserted extrasynaptic GABAARs.
After recovery, a single slice was transferred to a submerged, dual perfusion recording chamber (Warner Instruments, Hamden, Conn., USA) on the stage of an upright microscope (Nikon FN-1) with a 40× water immersion objective equipped with DIC/IR optics. Slices were maintained at 32° C. and gravity-superfused with ACSF solution throughout experimentation and perfused at rate of 2 ml/min with oxygenated (O2/CO2 95/5%) ACSF.
Whole-cell currents were recorded from the dentate gyms granule cells (DGGCs) in 310-μm-thick coronal hippocampal slices. Patch pipettes (5-7MΩ) were pulled from borosilicate glass (World Precision Instruments) and filled with intracellular solution of the composition (in mM) as follows: 140 CsCl, 1 MgCl2, 0.1 EGTA, 10 HEPES, 2 Mg-ATP, 4 NaCl and 0.3 Na-GTP (pH=7.2 with CsOH). A 5 min period for stabilization after obtaining the whole-cell recording conformation (holding potential of −60 mV) was allowed before currents were recorded using an Axopatch 200B amplifier (Molecular Devices), low-pass filtered at 2 kHz, digitized at 20 kHz (Digidata 1440A; Molecular Devices), and stored for offline analysis.
For tonic current measurements, an all-points histogram was plotted for a 10 s period before and during 100 μM picrotoxin application, once the response reached a plateau level. Recordings with unstable baselines were discarded. Fitting the histogram with a Gaussian distribution gave the mean baseline current amplitude and the difference between the amplitudes before and during picrotoxin was considered to be the tonic current. The negative section of the all-points histogram which corresponds to the inward IPSCs was not fitted with a Gaussian distribution (Kretschmannova et al., 2013; Nusser and Mody, 2002). Series resistance and whole-cell capacitance were continually monitored and compensated throughout the course of the experiment. Recordings were eliminated from data analysis if series resistance increased by >20%. Spontaneous inhibitory post-synaptic currents (sIPSCs) were analyzed using the mini-analysis software (version 5.6.4; Synaptosoft, Decatur, Ga.). Minimum threshold detection was set to 3 times the value of baseline noise signal. To assess sIPSC kinetics, the recording trace was visually inspected and only events with a stable baseline, sharp rising phase, and single peak were used to negate artifacts due to event summation. Only recordings with a minimum of 200 events fitting these criteria were analyzed. sIPSCs amplitude, and frequency from each experimental condition was pooled and expressed as mean±SEM. To measure sIPSC decay, 100 consecutive events were averaged and the decay was fitted to a double exponential and the weighted decay constant (tw) was determined. Statistical analysis was performed by using Student t-test (paired and unpaired where appropriate), where p<0.05 is considered significant.

[4] = 15 min incubation, 30-60 min wash

SMILES | GABAA-β3-containing receptors at the plasma membrane (surface β3/T-β3) ([1]; 100 nM, 20 min) | β3 S408/409 phosphorylation (p-β3/T-β3) [2] | increase in tonic current in the absence or presence of strychnine ([3]; 100 nM ALLO 15 min, strychnine 100 nM) | change of tonic current versus vehicle ([3]; 100 nM, 15 min incubation, 30-60 min wash) | tonic current after exposure and washout [3, 4] | change of tonic current after exposure to different concentrations [3, 4] | tonic current versus vehicle with PKC inhibitor GFX [3] | plasma membrane levels of GABAARs containing α4 and β3 subunits, S/T normalized to control (100%) ([1]; 100 nM, 20 min, WT mice) | plasma membrane accumulation of the α4 and β3 subunits ([1]; hippocampal slices, biotinylation) | tonic current in DGGCs after incubation and extensive washout ([3]; 100 nM, WT slices)
CC(=O)[C@H]1CC[C@H]2[C@@H]3CC[C@H]4C[C@H](O)CC[C@]4(C)[C@H]3CC[C@]12C [ALLO, Allopregnanolone] | increases | increases | no difference | significant increase | 95.8±10.8 pA | concentration-dependent increase; also recorded: significantly enhanced | no significant difference; also recorded: No change |  |  | 
C[C@@]1(O)CC[C@H]2[C@H](CC[C@@H]3[C@@H]2CC[C@]2(C)[C@@H](C(=O)Cn4nccn4)CC[C@@H]32)C1 [SGE-516] | increases | increases |  |  | 123.0±22.2 pA | concentration-dependent increase; also recorded: significantly enhanced | no significant difference; also recorded: No change | 175-185% | increased | significant increased
